Laboratory results as given in PubChem BioAssay AID1645862 (Buhrlage Lab, Dana-Farber Cancer Institute and Novartis …, 2021).
Activity calls are given as the source filed them. The rule behind the calls is not given here.

Target: Ubiquitin carboxyl-terminal hydrolase 8 (Homo sapiens) (UniProt P40818)
Experiment: Ubiquitin-specific protease 8 inhibitors, concentration-effect, biochemical, validation of initial actives (AID 1645862);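 note: potency reflects inhibition of USP8 cleavage of a ubiquitin rhodamine substrate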
Conditions: recombinant USP8 deubiquitinase activity assay

Ubiquitin carboxyl-terminal hydrolase 8 (Homo sapiens), sequence (P40818 whole entry, looked up): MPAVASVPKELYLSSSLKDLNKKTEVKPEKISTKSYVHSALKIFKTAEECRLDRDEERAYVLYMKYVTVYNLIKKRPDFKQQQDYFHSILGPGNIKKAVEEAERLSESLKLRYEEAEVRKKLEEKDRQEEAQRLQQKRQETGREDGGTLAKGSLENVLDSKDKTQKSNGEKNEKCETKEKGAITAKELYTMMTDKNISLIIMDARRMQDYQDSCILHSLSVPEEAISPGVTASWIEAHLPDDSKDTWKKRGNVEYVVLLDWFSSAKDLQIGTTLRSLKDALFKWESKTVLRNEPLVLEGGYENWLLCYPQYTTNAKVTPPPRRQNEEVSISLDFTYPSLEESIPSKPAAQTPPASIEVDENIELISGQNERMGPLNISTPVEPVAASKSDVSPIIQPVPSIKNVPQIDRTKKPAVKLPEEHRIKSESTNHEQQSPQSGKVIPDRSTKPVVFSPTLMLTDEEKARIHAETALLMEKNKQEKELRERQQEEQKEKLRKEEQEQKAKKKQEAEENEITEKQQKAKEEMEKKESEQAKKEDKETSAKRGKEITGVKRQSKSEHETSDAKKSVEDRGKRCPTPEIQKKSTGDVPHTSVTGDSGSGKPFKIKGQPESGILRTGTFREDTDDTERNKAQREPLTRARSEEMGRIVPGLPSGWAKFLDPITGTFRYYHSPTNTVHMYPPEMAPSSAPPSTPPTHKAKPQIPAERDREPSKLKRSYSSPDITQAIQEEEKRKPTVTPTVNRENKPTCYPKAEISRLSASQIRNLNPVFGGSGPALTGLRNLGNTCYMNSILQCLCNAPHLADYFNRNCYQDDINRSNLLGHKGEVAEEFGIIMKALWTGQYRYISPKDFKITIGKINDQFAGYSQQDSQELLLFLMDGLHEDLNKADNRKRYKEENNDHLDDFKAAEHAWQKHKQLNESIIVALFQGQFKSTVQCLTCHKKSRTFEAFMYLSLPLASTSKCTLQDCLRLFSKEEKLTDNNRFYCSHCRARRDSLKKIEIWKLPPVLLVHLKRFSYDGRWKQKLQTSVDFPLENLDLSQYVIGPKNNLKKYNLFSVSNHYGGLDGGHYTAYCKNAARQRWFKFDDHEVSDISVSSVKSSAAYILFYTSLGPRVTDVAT

Compound: O=C(CNS(=O)(=O)c1ccc(F)cc1)N1CCCC(c2nnc3ccccn23)C1 (stereo unspecified)
- IC50: > 40 µM (inactive)

Compound: O=C(NC(Cc1ccccc1)c1nc2ccccc2[nH]1)C1CC1 (stereo unspecified)
- IC50: 24.4 µM

Compound: O=C(CN(CC(=O)NCc1ccccc1Cl)c1nc2ccccc2s1)NCc1ccccc1Cl
- IC50: > 40 µM (inactive)

Compound: O=C(NCc1ccccc1)Nc1cccc2ccccc12
- IC50: > 40 µM (inactive)

Compound: Cc1ccc(NC(=O)Cc2nnc3c(-c4nc(C5CC5)no4)cccn23)cc1F
- IC50: 30.3 µM

Compound: Cc1ccc(-c2n[nH]n3c2nc(=O)c2ccc(C(=O)NC4CCCCC4)cc23)cc1
- IC50: > 40 µM (inactive)

Compound: Cc1ccc(-n2c(=O)[nH]c3c(C(N)=O)nc(-c4ccc(OCc5ccccc5)cc4)nc32)cc1
- IC50: > 40 µM (inactive)

Compound: O=C(Cn1c(=O)c2cccn2c2ccccc21)NCc1ccc(F)cc1
- IC50: > 40 µM (inactive)

Compound: Cc1ccc(C(=O)c2cn(CC(=O)Nc3ccc(F)c(F)c3)c3ccc(F)cc3c2=O)cc1
- IC50: > 40 µM (inactive)

Compound: O=C(Cn1c(=O)n(CCC(=O)NC2CCCC2)c(=O)c2ccccc21)NCc1ccccc1Cl
- IC50: > 40 µM (inactive)

Compound: Cc1ccccc1-n1ccc2nc(N3CCCC3)ncc2c1=O
- IC50: > 40 µM (inactive)

Compound: O=C(Cn1ncc2c(=O)oc3ccccc3c21)NCc1ccc2c(c1)OCO2
- IC50: > 40 µM (inactive)

Compound: CCc1noc(-c2ccn3c(CC(=O)Nc4ccccc4C)nnc3c2)n1
- IC50: 16.5 µM

Compound: Cc1cc(=O)n(CC(=O)Nc2ccccc2C)c(Nc2ccc(F)cc2)n1
- IC50: > 40 µM (inactive)

Compound: Cc1ccccc1-c1noc(-c2ccccc2OCC(=O)NC(C)C)n1
- IC50: > 40 µM (inactive)

Compound: O=C(COC(=O)c1cccc([N+](=O)[O-])c1)Nc1cccc(Oc2ccccc2)c1
- IC50: > 40 µM (inactive)

Compound: CCN(c1ccc(NC(=O)CSc2nnc(-c3ccccc3)n2-c2ccc(OC)c(OC)c2)cc1)C(C)C
- IC50: > 40 µM (inactive)

Compound: O=C(Cn1c(COc2ccccc2)nc2ccccc21)Nc1ccc(N2CCOCC2)cc1
- IC50: > 40 µM (inactive)

Compound: COc1ccc(OC)c2c(C)cc(N3CC(C)CC(C)C3)nc12 (stereo unspecified)
- IC50: > 40 µM (inactive)

Compound: CCCCNC(=O)C1Sc2nnc(-c3ccccc3)n2NC1c1ccccc1 (stereo unspecified)
- IC50: > 40 µM (inactive)

Compound: C[C@@H]1OC2=C(C(=O)c3cccc(O)c3C2=O)[C@H](O)[C@@H]1O
- IC50: 0.825 µM

Compound: Cc1nc2nc(C(c3ccccc3)c3ccccc3)[nH]n2c(=O)c1Cc1ccccc1
- IC50: > 40 µM (inactive)

Compound: COc1cc(NC(=O)Cn2c(=O)n(-c3ccc(CC(=O)NCc4ccco4)cc3)c(=O)c3ccccc32)cc(OC)c1
- IC50: > 40 µM (inactive)

Compound: O=C(NCCc1ccccc1)c1ccc2c(=O)n(Cc3ccco3)c(=O)n(Cc3cccc([N+](=O)[O-])c3)c2c1
- IC50: 15.4 µM

Compound: COc1ccc(C(NC(=O)c2nc3n(n2)-c2ccccc2S(=O)(=O)N3)C(C)C)cc1 (stereo unspecified)
- IC50: > 40 µM (inactive)

Compound: O=C(Nc1ccncc1)c1cn(Cc2ccccc2)cc2c(=O)n(-c3ccccc3)nc1-2
- IC50: > 40 µM (inactive)

Compound: O=C(Cn1c(-c2nc(-c3cccc(F)c3)no2)cccc1=O)NCc1ccco1
- IC50: > 40 µM (inactive)

Compound: CCC(=O)Nc1nc2cc(NC(=O)Nc3cc(C)cc(C)c3)ccc2s1
- IC50: > 40 µM (inactive)

Compound: Cc1c(-c2nn3c(-c4ccco4)nnc3s2)cccc1[N+](=O)[O-]
- IC50: > 40 µM (inactive)

Compound: O=C(Cn1c(=O)c2ccccc2n(CC(=O)Nc2cc(Cl)cc(Cl)c2)c1=O)NCc1ccco1
- IC50: > 40 µM (inactive)

Compound: Cc1cccc(NC(=O)Nc2nnc(CC(=O)NCc3ccccc3)s2)c1
- IC50: > 40 µM (inactive)

Compound: COc1ccc(/C=C/C(=O)Nc2ccc(Cl)c(-c3nc4ncccc4o3)c2)cc1
- IC50: > 40 µM (inactive)

Compound: O=C(COc1ccc(N2CC(C(=O)NCc3ccc4c(c3)OCO4)CC2=O)cc1)Nc1ccc(F)cc1 (stereo unspecified)
- IC50: > 40 µM (inactive)

Compound: Cc1cn2nnc(C(=O)Nc3ccc(OC(F)(F)F)cc3)c2c(=O)[nH]1
- IC50: > 40 µM (inactive)

Compound: Cc1ccc(NC(=O)Cn2c(=O)n(CCC(=O)NCCc3ccccc3)c(=O)c3ccccc32)cc1C
- IC50: > 40 µM (inactive)

Compound: CCOc1ccc2c(c1)c(=O)c(C(=O)c1ccc(C)cc1)cn2CC(=O)Nc1ccc(OC)c(OC)c1
- IC50: > 40 µM (inactive)
